We go through three compounds from patent US20040039027A1, “Benzimidazole compounds, process for producing the same and use thereof” (priority 2000, published 2004).

The data set can be described thus: Stability test in artificial gastric juice. Format: physicochemical. The settings on record: artificial gastric juice with acetonitrile, pH 1.2, artificial gastric juice pH ca. 1.2 with acetonitrile, 37° C.; calculated assuming pseudo-first-order decomposition. As to the method:
Stability Test in Artificial Gastric Juice
2-[[[3-Methyl-4-(2,2,2-trifluoroethoxy)-2-pyridyl]methyl]sulfinyl]-1H-benzimidazole(lansoprazole) and the compounds (ca. 1-2 mg) of Examples 1, 2 and 18 were respectively dissolved in acetonitrile (1 mL). To each solution (0.2 mL) were added acetonitrile (1 mL) and artificial gastric juice (3 mL, a solution prepared by dissolving sodium chloride (2.0 g) in hydrochloric acid (7.0 mL) and adding water to the amount of 1000 mL, pH ca. 1.2), and the stability of each compound after preservation at 37° C. was examined. Samples were taken immediately after addition of acetonitrile and artificial gastric juice, and 4, 8, 12, 16 and 20 hours thereafter, analyzed under the following HPLC analysis conditions, and the half-life was calculated on the assumption that the decomposition of the compound was a pseudo-first-order reaction. […]
detection wavelength: UV 285 nm column: YMC Pro C18 75 mm×4.6 mm I.D. mobile phase: the proportion of mobile phase A (0.01 mol/L aqueous ammonium acetate solution) and mobile phase B (acetonitrile) was changed with the lapse of time as in the following.
10 min. from immediately after addition: mobile phase A/mobile phase B=60/40→10/90 10 min. to 15 min.: mobile phase A/mobile phase B=10/90
15.1 min. to 20 min.: mobile phase A/mobile phase B=60/40 flow rate: 1.0 mL/min. column temperature: 25° C.
With `CCCOC(=O)OCn1c([S+]([O-])Cc2nccc(OCC(F)(F)F)c2C)nc2ccccc21` (stereo not drawn) [Example 18, [2-[[[3-Methyl-4-(2,2,2-trifluoroethoxy)-2-pyridinyl]methyl]sulfinyl]-1H-benzimidazol-1-yl]methyl propyl carbonate], the half-life is not below 4 h.
With `Cc1c(OCC(F)(F)F)ccnc1C[S+]([O-])c1nc2ccccc2n1COC(=O)c1ccccc1` (stereo not drawn) [Example 1, [2-[[[3-Methyl-4-(2,2,2-trifluoroethoxy)-2-pyridinyl]methyl]sulfinyl]-1H-benzimidazol-1-yl]methyl benzoate], the half-life is not below 4 h.
`Cc1c(OCC(F)(F)F)ccnc1C[S+]([O-])c1nc2ccccc2[nH]1` (stereo not drawn) [lansoprazole, 2-[[[3-Methyl-4-(2,2,2-trifluoroethoxy)-2-pyridyl]methyl]sulfinyl]-1H-benzimidazole, reference compound]: the half-life was less than 0.03 h.
